In series [1] the target is BChE (EC 3.1.1.8, equine serum) (Equus caballus, UniProt P81908). The series is described as follows: biochemical.
The target of series [2] is T1, AChE (EC 3.1.1.7, Electrophorus electricus, Type V-S) (Electrophorus electricus, UniProt O42275).
T1 construct: purchased Sigma-Aldrich Type V-S
The series is described as follows: biochemical. The note with it: mean of three measurements ± standard deviation. On the procedure:
All measurements were conducted in triplicate. […] The selectivity index is calculated as IC50(AChE)/IC50(BChE).

Series [3] has as its system PBMCs. Put plainly: Cell viability of LPS-stimulated PBMCs (CellTiter-Glo). The class given is cell-based. The following applies: human PBMCs, 24 h; three-fold dilutions starting at 100 µM.
For series [4], the system named is LPS-stimulated TNF-α production in human peripheral blood mononuclear cells (PBMCs). The series is described as follows: Inhibition of LPS-stimulated TNF-α production in PBMCs (ELISA). The following applies: for Inhibition of LPS-stimulated TNF-α production (in words): human PBMCs, three-fold dilutions starting at 100 µM; for IC50: Homo sapiens, PBMC, 24 h, read-out: IC50 of LPS-stimulated TNF-α production.

T1 sequence (O42275 24-633): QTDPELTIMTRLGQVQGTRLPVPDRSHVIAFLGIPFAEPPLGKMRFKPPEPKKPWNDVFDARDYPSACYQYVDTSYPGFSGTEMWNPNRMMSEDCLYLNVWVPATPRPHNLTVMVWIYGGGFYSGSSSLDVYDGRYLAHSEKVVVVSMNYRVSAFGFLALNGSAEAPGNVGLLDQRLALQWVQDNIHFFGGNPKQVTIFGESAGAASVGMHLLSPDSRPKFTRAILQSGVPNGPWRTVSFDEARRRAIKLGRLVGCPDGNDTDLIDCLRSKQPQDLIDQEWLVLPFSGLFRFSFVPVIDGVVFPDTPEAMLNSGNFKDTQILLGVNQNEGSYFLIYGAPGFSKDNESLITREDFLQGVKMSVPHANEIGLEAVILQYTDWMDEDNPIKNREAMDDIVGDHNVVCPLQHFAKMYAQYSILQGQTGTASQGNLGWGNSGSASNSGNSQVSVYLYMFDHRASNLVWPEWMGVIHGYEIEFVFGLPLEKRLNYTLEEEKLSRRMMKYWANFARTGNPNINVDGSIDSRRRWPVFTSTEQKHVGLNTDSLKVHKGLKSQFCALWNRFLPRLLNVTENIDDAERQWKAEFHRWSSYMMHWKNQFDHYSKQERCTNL
Chain of BChE (EC 3.1.1.8, equine serum) (P81908 whole entry): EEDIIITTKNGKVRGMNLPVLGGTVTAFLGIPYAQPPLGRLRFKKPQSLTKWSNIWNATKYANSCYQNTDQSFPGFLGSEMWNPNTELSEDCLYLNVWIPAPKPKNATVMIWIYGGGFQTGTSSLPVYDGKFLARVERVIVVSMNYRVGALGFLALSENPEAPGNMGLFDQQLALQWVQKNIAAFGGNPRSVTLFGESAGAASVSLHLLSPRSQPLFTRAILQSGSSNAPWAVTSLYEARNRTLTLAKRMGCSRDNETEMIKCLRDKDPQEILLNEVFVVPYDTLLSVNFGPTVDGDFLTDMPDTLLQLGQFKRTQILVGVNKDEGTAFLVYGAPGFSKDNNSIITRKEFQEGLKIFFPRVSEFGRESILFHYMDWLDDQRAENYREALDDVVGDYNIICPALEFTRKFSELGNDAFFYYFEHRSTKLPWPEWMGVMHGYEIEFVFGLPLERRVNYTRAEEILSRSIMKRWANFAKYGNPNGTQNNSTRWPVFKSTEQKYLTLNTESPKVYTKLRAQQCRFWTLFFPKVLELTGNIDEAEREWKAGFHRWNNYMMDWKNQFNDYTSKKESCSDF

For the compound `C=CCn1n[n+](Cc2ccccc2)c2ccc3sccc3c21` [Compound 14, 1-allyl-3-benzyl-1H-thieno[3′,2′:3,4]benzo[1,2-d][1,2,3]triazol-3-ium bromide], the IC50 in series [1] was 0.098 ± 0.018 µM; in series [2], 2.13 ± 0.13 µM.
`Clc1cccc(Cn2n[n+](Cc3ccccc3)c3ccc4sccc4c32)c1.[Br-]` [Compound 4, 3-benzyl-1-(3-chlorobenzyl)-1H-thieno[3′,2′:3,4]benzo[1,2-d][1,2,3]triazol-3-ium bromide]: the “Effect on cell viability (in words)” value in series [3] is given as “decreased cell viability”. Moreover, in series [4], the “Inhibition of LPS-stimulated TNF-α production (in words)” value (“Inhibition” for short) was “did not inhibit TNF-α production”.
As for `Cc1cccc(Cn2n[n+](Cc3ccc(Cl)cc3)c3ccc4sccc4c32)c1` [Compound 11, 3-(4-chlorobenzyl)-1-(3-methylbenzyl)-1H-thieno[3′,2′:3,4]benzo[1,2-d][1,2,3]triazol-3-ium bromide], the IC50 is 1.11 ± 0.77 µM in series [1] and 6.23 ± 0.58 µM in series [2].
For `COc1ccc(Cn2n[n+](Cc3ccc(C)cc3)c3ccc4sccc4c32)cc1` [Compound 12, 1-(4-methoxybenzyl)-3-(4-methylbenzyl)-1H-thieno[3′,2′:3,4]benzo[1,2-d][1,2,3]triazol-3-ium bromide], in that order: 3.98 ± 1.25 µM and 11.8 ± 2.15 µM.
Consider `O=[N+]([O-])c1ccc(C[n+]2nn(Cc3cccc(Cl)c3)c3c4ccsc4ccc32)cc1.[Br-]` [Compound 7, 1-(3-chlorobenzyl)-3-(4-nitrobenzyl)-1H-thieno[3′,2′:3,4]benzo[1,2-d][1,2,3]triazol-3-ium bromide], for which the “Inhibition” value in series [4] was “did not inhibit TNF-α production at any tested concentrations”. Besides, the IC50 in series [1] came out at 10 ± 1.64 µM; in series [2] it was 11.4 ± 0.39 µM.
The corresponding values for `Cc1cc2c(ccc3c2n(Cc2ccc(Cl)cc2)n[n+]3Cc2ccc(Cl)cc2)s1.[Br-]` [Compound 3, 1,3-bis(4-chlorobenzyl)-7-methyl-1H-thieno[3′,2′:3,4]benzo[1,2-d][1,2,3]triazol-3-ium bromide] are “did not inhibit TNF-α production at any tested concentrations”, 7.6 ± 0.82 µM and 8.89 ± 3.26 µM.
With `C[C@@H]1C[C@H]2[C@@H]3CCC4=CC(=O)C=C[C@]4(C)[C@@]3(F)[C@@H](O)C[C@]2(C)[C@@]1(O)C(=O)CO` [dexamethasone, reference compound], the IC50 in series [4] is 0.0046 µM.
On to `Fc1cccc(Cn2n[n+](Cc3ccccc3)c3ccc4sccc4c32)c1.[Br-]` [Compound 8, 3-benzyl-1-(3-fluorobenzyl)-1H-thieno[3′,2′:3,4]benzo[1,2-d][1,2,3]triazol-3-ium bromide], for which the “Effect on cell viability (in words)” value in series [3] is “decreased cell viability”. The “Inhibition” value in series [4] is listed as “did not inhibit TNF-α production”. In addition, the IC50 is 4.52 ± 0.17 µM in series [1] and 22.2 ± 2.83 µM in series [2].
On to `CC=Cn1n[n+](Cc2ccccc2)c2ccc3sccc3c21` [Compound 15, 3-benzyl-1-(prop-1-en-1-yl)-1H-thieno[3′,2′:3,4]benzo[1,2-d][1,2,3]triazol-3-ium bromide], for which the IC50 was determined as 0.732 ± 0.137 µM in series [1] and 3.62 ± 0.42 µM in series [2].
On to `Cc1ccc(C[n+]2nn(Cc3ccc(Cl)cc3)c3c4ccsc4ccc32)cc1.[Br-]` [Compound 1, 1-(4-chlorobenzyl)-3-(4-methylbenzyl)-1H-thieno[3′,2′:3,4]benzo[1,2-d][1,2,3]triazol-3-ium bromide], for which, in series [3], the “Effect on cell viability (in words)” value is on record as “decreased cell viability”. Also, the “Inhibition” value in series [4] was “did not inhibit TNF-α production”. The values for the IC50 in series [1] and in series [2] were 2.55 ± 0.58 µM and 12.7 ± 1.85 µM, respectively.
The corresponding values for `Cc1ccc(C[n+]2nn(Cc3cccc(Cl)c3)c3c4ccsc4ccc32)cc1.[Br-]` [Compound 5, 1-(3-chlorobenzyl)-3-(4-methylbenzyl)-1H-thieno[3′,2′:3,4]benzo[1,2-d][1,2,3]triazol-3-ium bromide] are “decreased cell viability”, “did not inhibit TNF-α production”, 8.13 ± 0.83 µM and 55.6 ± 2.36 µM.
Regarding `Fc1cccc(Cn2n[n+](Cc3ccc(Cl)cc3)c3ccc4sccc4c32)c1` [Compound 10, 3-(4-chlorobenzyl)-1-(3-fluorobenzyl)-1H-thieno[3′,2′:3,4]benzo[1,2-d][1,2,3]triazol-3-ium bromide], the values for the concentration for half-maximal inhibition (IC50) in series [1] and in series [2] were 2.45 ± 0.43 µM and 9.96 ± 0.42 µM, respectively.
Take `Clc1ccc(Cn2n[n+](Cc3ccc(Cl)cc3)c3ccc4sccc4c32)cc1.[Br-]` [Compound 2, 1,3-bis(4-chlorobenzyl)-1H-thieno[3′,2′:3,4]benzo[1,2-d][1,2,3]triazol-3-ium bromide]: in series [3], the “Effect on cell viability (in words)” value is “decreased cell viability”. In addition, the “Inhibition” value in series [4] is on record as “did not inhibit TNF-α production”. The results for the IC50 in series [1] and in series [2] were 4.99 ± 1.1 µM and 10.7 ± 1.46 µM, respectively.
With `COc1ccc(Cn2n[n+](Cc3ccc(Cl)cc3)c3ccc4sccc4c32)cc1` [Compound 13, 3-(4-chlorobenzyl)-1-(4-methoxybenzyl)-1H-thieno[3′,2′:3,4]benzo[1,2-d][1,2,3]triazol-3-ium bromide], the IC50 in series [1] worked out at 4.05 ± 1.05 µM; in series [2] it was 7.4 ± 0.94 µM.
Turning to `Clc1ccc(C[n+]2nn(Cc3cccc(Cl)c3)c3c4ccsc4ccc32)cc1.[Br-]` [Compound 6, 1-(3-chlorobenzyl)-3-(4-chlorobenzyl)-1H-thieno[3′,2′:3,4]benzo[1,2-d][1,2,3]triazol-3-ium bromide], the “Inhibition” value in series [4] was “did not inhibit TNF-α production at any tested concentrations”. Also, the IC50 in series [1] is 0.96 ± 0.14 µM; in series [2], 12.9 ± 0.87 µM.
As to `Cc1ccc(C[n+]2nn(Cc3cccc(F)c3)c3c4ccsc4ccc32)cc1.[Br-]` [Compound 9, 1-(3-fluorobenzyl)-3-(4-methylbenzyl)-1H-thieno[3′,2′:3,4]benzo[1,2-d][1,2,3]triazol-3-ium bromide], the “Effect on cell viability (in words)” value in series [3] is listed as “affected cell viability at the three highest concentrations tested”. In addition, the figures for the IC50 in series [4], in series [1] and in series [2] were 0.66 µM, 0.363 ± 0.038 µM and 4.8 ± 0.71 µM, respectively.

Values taken from PMC12299554 (Pharmaceuticals, 2025).
